Laboratory results as given in patent publication USRE50917E1, “Formulations of (s)-3-(4-((4-(morpholinomethyl)benzyl)oxy)-1-oxoisoindolin-2-yl)piperidine-2,6-dione” (Celgene Corporation, priority 2013, dated 2026).
“Also recorded” adds a separate entry of the source.

What was measured:
IL-10 = details: LPS-stimulated hPBMC and human whole blood; background statement; cited from earlier work
TNF-α = details: LPS-stimulated hPBMC and human whole blood; background statement; cited from earlier work
T cells = details: background statement; cited from earlier work
IL-1β = details: LPS-stimulated hPBMC and human whole blood; background statement; cited from earlier work
[1] = Chemical stability of Compound A towards hydrolysis; format: physicochemical

Structure (SMILES): O=C1CC[C@H](N2Cc3c(OCc4ccc(CN5CCOCC5)cc4)cccc3C2=O)C(=O)N1 [Compound A, (S)-3-(4-((4-(morpholinomethyl)benzyl)oxy)-1-oxoisoindolin-2-yl)piperidine-2,6-dione]
- Effect on IL-10, in words (IL-10): stimulates
- Degradation of TNF-α mRNA, in words (TNF-α): enhances
- Inhibition of TNF-α, in words (TNF-α): markedly inhibits
- Co-stimulation of T cells, in words (T cells): potent co-stimulator
- Inhibition of IL-1β, in words (IL-1β): potently inhibits
- Susceptibility to hydrolysis, in words [1]: prone to hydrolysis; also recorded: easily degraded by hydrolysis
